The experiment addresses GRK5 (Homo sapiens, UniProt P34947). Put plainly: ADP-Glo luminescent kinase assay, casein substrate, […] ATP. It is filed as biochemical. On the technique in general: In ADP-Glo the light output rises with the ADP produced.

The IC50 is the point on the concentration scale where inhibition reaches its midpoint. Low values mean inhibition by little substance, high ones a need for much substance.

GRK5, sequence (P34947 whole entry): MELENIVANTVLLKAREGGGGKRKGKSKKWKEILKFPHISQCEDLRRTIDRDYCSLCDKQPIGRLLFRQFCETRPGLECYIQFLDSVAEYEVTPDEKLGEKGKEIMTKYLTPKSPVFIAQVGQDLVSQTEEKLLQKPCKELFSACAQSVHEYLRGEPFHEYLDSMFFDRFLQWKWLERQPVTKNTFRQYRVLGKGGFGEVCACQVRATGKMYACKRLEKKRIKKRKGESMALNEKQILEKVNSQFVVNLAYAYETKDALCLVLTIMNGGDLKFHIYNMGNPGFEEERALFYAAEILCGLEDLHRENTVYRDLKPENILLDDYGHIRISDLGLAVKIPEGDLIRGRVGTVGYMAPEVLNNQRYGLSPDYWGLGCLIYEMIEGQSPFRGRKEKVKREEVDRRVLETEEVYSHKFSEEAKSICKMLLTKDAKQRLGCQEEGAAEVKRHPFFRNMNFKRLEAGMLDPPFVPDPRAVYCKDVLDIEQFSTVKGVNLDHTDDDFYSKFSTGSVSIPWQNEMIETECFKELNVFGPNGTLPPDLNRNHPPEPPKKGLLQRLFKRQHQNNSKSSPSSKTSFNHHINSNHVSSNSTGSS

For the compound `COc1cc(Nc2cc3c(cn2)nc(-c2ccco2)n3C)cc(OC)c1OC` [GRK5-IN-2], the midpoint of inhibition, the IC50, lay at 49.7 µM.
